Test results: patent publication US9655982B2, “Formation and uses of europium complexes” (Wayne State University, priority 2010, dated 2017)
Where “and” joins values, the source holds several entries; their conditions need not be identical. Equal entries are not always repeated. Entries after “also recorded” stand apart in the source; their conditions may differ. Values belong to the compound of their own block, whether it stands above or below them.

Test: Cyclic voltammetry: anodic peak potentials of aqueous Eu(II) cryptates vs ferrocene/ferrocenium (oxidative stability)
Type: physicochemical
Settings: for Anodic peak potentials (Epa) with respect to ferrocene/ferrocenium (Fc/Fc+): aqueous MOPS 0.01 M pH 7.5, Et4NClO4 0.05 M, Ar, ambient temperature, scan rate 150 mV/s, mean ± standard error; for Increase in oxidative stability of Eu(II) compared to cryptand 3: difference in anodic peak potential, Eu(II) complex of the cryptand
Description: To synthesize the diverse set of cryptands 2 and 4-6, a three-step procedure was devised that involved common intermediates 7, 9, and 11 (Scheme 1). Briefly, the synthesis involved the conversion of the appropriate ethylenediols or catechols to the corresponding ditosylates (7, 9, and 11) followed by ring closure with 1,4,10,13-tetraoxa-7,16-diazacyclooctadecane, 2,2′-(ethylenedioxy)bis(ethylamine) or 1,4,10,13-tetrathia-7,16-diazacyclooctadecane.
To synthesize the diverse set of cryptands 1-6, a three-step procedure was devised that involved common intermediates 7, 9, and 11 (Scheme 1). Briefly, the synthesis involved the conversion of the appropriate ethylenediols or catechols to the corresponding ditosylates (7, 9, and 11) followed by ring closure with 1,4,10,13-tetraoxa-7,16-diazacyclooctadecane, 2,2′-(ethylenedioxy)bis(ethylamine), or 1,4,10,13-tetrathia-7,16-diazacyclooctadecane. […] The resulting solution was placed in a standard three-electrode cell (glassy-carbon working electrode, Pt-wire auxiliary electrode, and Ag/AgCl (1.0 M KCl) reference electrode). The potential at the carbon electrode was held at −0.8 V (vs Ag/AgCl) while stirring to produce Eu^II in situ for metalation.
^1H NMR spectra were obtained using a Varian Unity 300 (300 MHz) spectrometer and a Mercury 400 (400 MHz) spectrometer, ^13C NMR spectra were obtained using a Varian Unity 300 (75 MHz) spectrometer and a Mercury 400 (101 MHz) spectrometer. ^19F NMR spectra were obtained using Varian Unity 300 (282 MHz) spectrometer. […] NMR data are assumed to be first order, and the apparent multiplicity is reported as “s”=singlet, “d”=doublet, “dd”=doublet of doublets, “t”=triplet, “td”=triplet of doublets, “q”=quartet, “m”=multiplet, or “brs”=broad singlet. Italicized elements are those that are responsible for the shifts. High-resolution electrospray ionization mass spectra (HRESIMS) were obtained on an electrospray time-of-flight high-resolution Waters Micromass LCT Premier XE mass spectrometer. Cyclic voltammetric analyses were performed using a WaveNow USB potentiostat (Pine Research Instrumentation). A standard three-electrode cell was used with a glassy-carbon working electrode, a Pt-wire auxiliary electrode, and a Ag/AgCl reference electrode (1.0 M KCl). All electrochemical experiments were performed under an Ar atmosphere at ambient temperature with Et4NClO4 (0.05 M) as the supporting electrolyte, an aqueous solution of 3-(N-morpholino)propanesulfonic acid (MOPS, 0.01 M, pH 7.5) as the solvent, and the ferrocene/ferrocinium (Fc/Fc+) redox couple as an internal standard. From the initial potential of the analysis (−1.5 V), the voltage was ramped to 0.75 V and back to −1.5 V at a scan rate of 150 mV/s. […] After each measurement, ferrocene (6.7 mM in acetonitrile) was added to the sample (0.13 mM ferrocene after addition) and the measurement was repeated to enable referencing to Fc/Fc+.
To an aqueous solution of 3-(N-morpholino)propanesulfonic acid (MOPS) (0.01 M, pH 7.5), Et4NClO4 (0.05 M), and Eu(NO3)3.5H2O (1.1 mM, 1 equiv) was added a solution of the desired cryptand (12 mM, 1.2 equiv) in acetonitrile, and the resulting mixture was sparged with Ar for 5 minutes. The potential of the resulting solution was held at −0.8 V (30 minutes per 0.01 mmol of Eu(NO3)3.5H2O) while stirring under constant sparging with Ar. Immediately after holding the potential at −0.8 V, cyclic voltammograms were obtained in the potential range of −1.5 to 0.75 V at a scan rate of 150 mV/s. After acquiring the voltammogram, ferrocene (6.7 mM in acetonitrile, 0.1 equiv) was added, and another cyclic voltammogram was obtained. These cyclic voltammetric experiments were repeated 3-6 times for each ligand.

- Anodic peak potential compared to mono-phenyl substituted cryptand 3 (in words) (p=0.76): no significant difference
Compound: c1ccc2c(c1)OCCN1CCOCCOCCN(CCO2)CCOc2ccccc2OCC1 [cryptand 5, 5,6,14,15-Dibenzo-4,7,13,16,21,24-hexaoxa-1,10-diazabicyclo[8.8.8]hexacosane]

Compound: O=[N+]([O-])[O-].O=[N+]([O-])[O-].O=[N+]([O-])[O-].[Eu+3] [Eu(NO3)3, reference compound]
- Anodic peak potentials (Epa) with respect to ferrocene/ferrocenium (Fc/Fc+): −0.701 ± 0.030 V vs, Fc/Fc^+

- Anodic peak potentials (Epa) with respect to ferrocene/ferrocenium (Fc/Fc+): −0.035 ± 0.010 V vs, Fc/Fc^+
Compound: c1ccc2c(c1)OCCN1CCSCCSCCN(CCO2)CCSCCSCC1 [6-Eu]

- Oxidative stability compared to unmodified cryptand 1 (in words) (cyclic voltammetric data of Eu-containing solutions): increased oxidative stability
Compound: CC1(C)OCCN2CCOCCOCCN(CCOC1(C)C)CCOC(C)(C)C(C)(C)OCC2 [cryptand 2, 5,5,6,6,14,14,15,15-Octamethyl-4,7,13,16,21,24-hexaoxa-1,10-diazabicyclo[8.8.8]hexacosane]

- Anodic peak potentials (Epa) with respect to ferrocene/ferrocenium (Fc/Fc+): −0.079 ± 0.007 V vs, Fc/Fc^+
Compound: Fc1ccc2c(c1)OCCN1CCOCCOCCN(CCOCCOCC1)CCO2 [4-Eu]
- Oxidative stability compared to hemoglobin (in words) (Fe(II) in hemoglobin, p=0.64, p=0.45): statistically identical; also recorded: not different

- Increase in oxidative stability of Eu(II) compared to cryptand 3: 133 mV and 129 mV
Compound: Fc1ccc2c(c1)OCCN1CCOCCOCCN(CCOCCOCC1)CCO2 [cryptand 4, 5,6-(4-Fluorobenzo)-4,7,13,16,21,24-hexaoxa-1,10-diazabicyclo[8.8.8]hexacos-5-ene]

- Oxidative potential more positive than hemoglobin (Fe^2+/3+) (cryptand with Eu(II)): 35 mV
- Oxidative potential more positive than the Eu aqua ion (cryptand with Eu(II)): 666 mV
- Increase in oxidative stability of Eu(II) compared to cryptand 3: 173 mV
Compound: c1ccc2c(c1)OCCN1CCSCCSCCN(CCO2)CCSCCSCC1 [cryptand 6, 5,6-Benzo-4,7-dioxa-13,16,21,24-tetrathia-1,10-diazabicyclo[8.8.8]hexacos-5-ene]

Compound: hemoglobin: Human hemoglobin from RayBiotech Inc.; Fe(II) oxidation used as biological comparison [reference compound]
- Anodic peak potentials (Epa) with respect to ferrocene/ferrocenium (Fc/Fc+): −0.070 ± 0.003 V vs, Fc/Fc^+
